According to article PMC9550789, “Identification and biochemical characterization of a novel N-acetylglucosamine kinase in Saccharomyces cerevisiae” (Scientific Reports, 2022):

T1: Emi2 (Saccharomyces cerevisiae, UniProt Q04409)
T1 sequence (Q04409 2-500): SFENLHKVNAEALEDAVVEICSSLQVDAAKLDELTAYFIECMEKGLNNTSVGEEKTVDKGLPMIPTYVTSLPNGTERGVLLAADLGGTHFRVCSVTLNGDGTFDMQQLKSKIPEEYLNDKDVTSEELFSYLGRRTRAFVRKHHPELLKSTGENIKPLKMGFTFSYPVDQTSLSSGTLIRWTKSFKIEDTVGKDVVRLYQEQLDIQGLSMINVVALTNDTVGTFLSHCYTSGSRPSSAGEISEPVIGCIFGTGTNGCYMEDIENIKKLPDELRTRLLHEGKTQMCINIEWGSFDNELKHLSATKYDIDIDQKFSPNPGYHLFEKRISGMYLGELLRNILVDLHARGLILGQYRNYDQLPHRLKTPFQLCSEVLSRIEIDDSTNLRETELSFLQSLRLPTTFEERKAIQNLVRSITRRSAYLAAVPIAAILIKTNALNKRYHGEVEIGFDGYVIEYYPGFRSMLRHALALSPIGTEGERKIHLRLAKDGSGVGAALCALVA

T2: Glk1 (Saccharomyces cerevisiae, UniProt P17709)
T2 sequence (P17709 2-500): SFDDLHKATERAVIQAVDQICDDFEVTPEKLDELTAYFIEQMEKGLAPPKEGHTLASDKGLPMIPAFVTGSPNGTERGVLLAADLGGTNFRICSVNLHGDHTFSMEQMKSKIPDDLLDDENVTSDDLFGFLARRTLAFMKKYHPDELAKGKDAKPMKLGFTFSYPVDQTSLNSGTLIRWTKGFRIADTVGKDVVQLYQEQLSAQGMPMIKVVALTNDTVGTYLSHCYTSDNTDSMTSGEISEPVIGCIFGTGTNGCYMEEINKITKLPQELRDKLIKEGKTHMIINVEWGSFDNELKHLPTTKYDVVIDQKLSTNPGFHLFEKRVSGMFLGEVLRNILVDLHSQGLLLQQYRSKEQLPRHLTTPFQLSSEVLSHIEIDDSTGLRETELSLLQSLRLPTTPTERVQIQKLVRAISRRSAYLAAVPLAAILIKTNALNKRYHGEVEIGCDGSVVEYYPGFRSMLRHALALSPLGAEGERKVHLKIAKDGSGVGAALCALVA

T3: Hxk2 (Saccharomyces cerevisiae, UniProt P04807)
T3 sequence (P04807 2-486): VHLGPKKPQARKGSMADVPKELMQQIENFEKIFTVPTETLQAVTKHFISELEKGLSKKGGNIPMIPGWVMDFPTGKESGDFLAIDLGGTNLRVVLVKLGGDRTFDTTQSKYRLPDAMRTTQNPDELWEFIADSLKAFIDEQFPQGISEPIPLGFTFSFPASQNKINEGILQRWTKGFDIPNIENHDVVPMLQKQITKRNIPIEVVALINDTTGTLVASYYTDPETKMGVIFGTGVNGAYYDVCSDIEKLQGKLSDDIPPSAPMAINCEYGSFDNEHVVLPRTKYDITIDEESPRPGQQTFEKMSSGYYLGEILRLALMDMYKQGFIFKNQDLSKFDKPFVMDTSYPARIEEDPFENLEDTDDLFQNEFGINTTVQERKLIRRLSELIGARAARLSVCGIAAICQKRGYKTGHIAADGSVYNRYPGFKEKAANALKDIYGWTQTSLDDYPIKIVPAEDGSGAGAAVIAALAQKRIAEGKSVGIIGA

T4: Hxk1 (Saccharomyces cerevisiae, UniProt P04806)
T4 sequence (P04806 1-485): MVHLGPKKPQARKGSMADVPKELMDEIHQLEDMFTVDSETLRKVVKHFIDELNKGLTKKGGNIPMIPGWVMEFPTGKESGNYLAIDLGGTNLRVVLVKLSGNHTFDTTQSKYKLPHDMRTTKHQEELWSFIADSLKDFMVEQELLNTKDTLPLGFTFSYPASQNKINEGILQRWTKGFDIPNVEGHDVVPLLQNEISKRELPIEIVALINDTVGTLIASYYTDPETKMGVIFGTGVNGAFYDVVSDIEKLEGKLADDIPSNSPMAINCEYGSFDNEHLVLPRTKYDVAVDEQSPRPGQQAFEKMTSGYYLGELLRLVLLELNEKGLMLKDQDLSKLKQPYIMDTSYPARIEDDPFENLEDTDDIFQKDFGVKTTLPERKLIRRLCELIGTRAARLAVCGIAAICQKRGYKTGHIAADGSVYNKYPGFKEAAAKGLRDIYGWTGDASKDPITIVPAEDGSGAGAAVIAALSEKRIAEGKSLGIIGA

B1: Ngk1 (YLR446Wp) (Saccharomyces cerevisiae S288C) (protein)
chain: MTIESTLARELESLILPADSIVNVVDQFQEELLSRLQTNTISMLPQCLVPDKRSRWNPEDKILTIDFGGTRLKFAIISLPQIVIEYNDAFELTYNIVDSNFFNQIIYTICTRLAANGYIKKKNESSEASKFFVSVTFSFPLNPEGEVVAMGKGFVMTDTLQGSTVKQLIQSSFHRIISENIEEFFCTMNVCHVINDAIAVSLTSKFICENDSISLIIGTGTNACFEVPYGYLPPFKRDALRETLPSSYNKETLNFKHVLINSEIGFIGKNVIALQPFDIHGAISYEMPLECVTSGKWLPLSLKNILLQYNIIPKNFPVEFNGELVCQLAEDCTNAWFENEHYALICQIARLLIKRAAFYVAAIVQAIDIITGCKNYNFIHIGYVGSFLHNSNFYREQIKYYSSIHIKLQFLNHSNLLGAAIATYLNKSDNQVQ
notes: full-length ORF, 433 residues, about 50 kDa predicted, N-terminal His6-tag (pCold II), E. coli BL21 (DE3), HisTrap purified; tag removal not mentioned

Columns and labels:
[1] = target: T1, Emi2; test: phosphorylation of glucose; type: biochemical; details: sugar phosphorylation with ATP; details in supplement
[2] = target: T2, Glk1; test: phosphorylation of glucose; type: biochemical; details: sugar phosphorylation with ATP; details in supplement
[3] = target: T3, Hxk2; test: phosphorylation of glucose; type: biochemical; details: sugar phosphorylation with ATP; details in supplement
[4] = target: T4, Hxk1; test: phosphorylation of glucose; type: biochemical; details: sugar phosphorylation with ATP; details in supplement
[5] = substrate: Nc1ncnc2c1ncn2[C@@H]1O[C@H](COP(=O)(O)OP(=O)(O)OP(=O)(O)O)[C@@H](O)[C@H]1O; test: pyruvate kinase / lactate dehydrogenase coupled assay, ADP formation; type: biochemical, Saccharomyces cerevisiae; details: GlcNAc as sugar substrate (concentration not given)

Row | Molecule | phosphorylation of glucose [1] | phosphorylation of glucose [2] | phosphorylation of glucose [3] | phosphorylation of glucose [4] | Km [5] [µM] | kcat [5] [s⁻¹]
1 | OC[C@H]1OC(O)[C@H](O)[C@@H](O)[C@@H]1O (stereo partly drawn) [glucose] | all these hexokinases clearly exhibited the activity for Glc | all these hexokinases clearly exhibited the activity for Glc | all these hexokinases clearly exhibited the activity for Glc | all these hexokinases clearly exhibited the activity for Glc | – | –
2 | B1 | – | – | – | – | 1200 | 3.4
